Laboratory results reported in patent US20080269152A1, “Nucleic acid binding oligonucleotides” (President and Fellows of Harvard College Harvard Medical …, priority 2003, published 2008).

System: internal ribosome entry site of the Hepatitis C virus, nucleotides 1-372 (HCV-IRES) RNA
Test: Hybridization of Cy3-labeled HCV-IRES RNA to DNA 5mer array
Assay type: binding
Settings: address among the 40 most fluorescent in 3 out of 5 arrays; HCV-IRES RNA 92.7 nM, 4° C. overnight, scanned at 532 nm
Procedure: A short DNA 5mer array was made to order by Combimatrix® Mukilteo, Wash. The array contained 1,000 of the […] possible DNA 5mer oligomers, and provided a separate address for each oligomer.
The target nucleic acid sequence used was the RNA transcript of the internal ribosome entry site of the Hepatitis C virus, nucleotides 1-372 (HCV-IRES). The RNA was prepared using a Megascrip™ T7 kit, nuclease free water and 5-(3aminoallyl)-UTP, which were all provided by Ambion Inc. A DNA template encoding the HCV-IRES was constructed according to standard techniques and linearized. RNA synthesis reaction mixture contained the following:
The reaction mixture was incubated at 30° C. overnight and purified using Rneasy® kit from QIAGEN, Inc. Target Sequence was then labeled using a Cy3 monoreactive dye pack from Amersham Biosciences, Inc. Dried HCV-IRES RNA was added to 20 μL of sodium carbonate (0.1 M pH 8.5) followed by 20 μL Cy3 dye solution. The reaction mixture was mixed and incubated at room temperature for 1 hour in the dark and purified using RNeasy® mini-kit.
The array was incubated with RNase free water for 30 minutes at 37° C. then washed three times with wash buffer (300 mM NaCl, 100 mM MgCl2). Hybridization was effected by adding a solution of HCV-IRES RNA (92.7 nM in 300 mM NaCl, 100 mM MgCl2 and 100 mM Tris pH 7.4) into the hybridization chamber. The array was incubated at 4° C. overnight in the dark and rinsed three times with wash buffer.
If an address corresponding to the same oligomer was selected in 3 out of 5 arrays analyzed, that oligomer was scored as likely binding ligand for the HCV-IRES RNA.

Sequence	likely binding candidates for HCV-IRES
GGCCC	likely binding candidates
GGGGG	likely binding candidates
GGTCC	likely binding candidates
GTCCC	likely binding candidates
TTCCC	likely binding candidates
TTCTC	likely binding candidates
